Data as given in patent US8802866B2, “Pyridinylimidazolone derivatives for the inhibition of PI3 kinases” (Merck Patent GmbH, priority 2009, dated 2014).

Columns and labels:
PI3Kalpha = PI3Kalpha (Homo sapiens, UniProt P42336); assay: Biochemical PI3Kalpha assay (neomycin SPA, lipid phosphorylation); settings: human recombinant GST-PI3K
Summary of the method: (§1)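 Recombinant PI3K incubated with lipid substrate and radioactive ATP for 120 min at room temperature with gentle stirring, then stopped with neomycin-coated PVT-SPA beads, ATP 60 mM and EDTA 6.2 mM in PBS. After 60 min bead binding and centrifugation, radioactive Ptdlns(3)P counted by scintillation.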

mTOR = biological target: T1, mTOR (Homo sapiens, UniProt P42345); assay: Biochemical mTOR assay (Millipore mTOR assay kit)
T1 construct: purchased Millipore 14-770
T1 sequence (P42345 1362-2549 limits assumed): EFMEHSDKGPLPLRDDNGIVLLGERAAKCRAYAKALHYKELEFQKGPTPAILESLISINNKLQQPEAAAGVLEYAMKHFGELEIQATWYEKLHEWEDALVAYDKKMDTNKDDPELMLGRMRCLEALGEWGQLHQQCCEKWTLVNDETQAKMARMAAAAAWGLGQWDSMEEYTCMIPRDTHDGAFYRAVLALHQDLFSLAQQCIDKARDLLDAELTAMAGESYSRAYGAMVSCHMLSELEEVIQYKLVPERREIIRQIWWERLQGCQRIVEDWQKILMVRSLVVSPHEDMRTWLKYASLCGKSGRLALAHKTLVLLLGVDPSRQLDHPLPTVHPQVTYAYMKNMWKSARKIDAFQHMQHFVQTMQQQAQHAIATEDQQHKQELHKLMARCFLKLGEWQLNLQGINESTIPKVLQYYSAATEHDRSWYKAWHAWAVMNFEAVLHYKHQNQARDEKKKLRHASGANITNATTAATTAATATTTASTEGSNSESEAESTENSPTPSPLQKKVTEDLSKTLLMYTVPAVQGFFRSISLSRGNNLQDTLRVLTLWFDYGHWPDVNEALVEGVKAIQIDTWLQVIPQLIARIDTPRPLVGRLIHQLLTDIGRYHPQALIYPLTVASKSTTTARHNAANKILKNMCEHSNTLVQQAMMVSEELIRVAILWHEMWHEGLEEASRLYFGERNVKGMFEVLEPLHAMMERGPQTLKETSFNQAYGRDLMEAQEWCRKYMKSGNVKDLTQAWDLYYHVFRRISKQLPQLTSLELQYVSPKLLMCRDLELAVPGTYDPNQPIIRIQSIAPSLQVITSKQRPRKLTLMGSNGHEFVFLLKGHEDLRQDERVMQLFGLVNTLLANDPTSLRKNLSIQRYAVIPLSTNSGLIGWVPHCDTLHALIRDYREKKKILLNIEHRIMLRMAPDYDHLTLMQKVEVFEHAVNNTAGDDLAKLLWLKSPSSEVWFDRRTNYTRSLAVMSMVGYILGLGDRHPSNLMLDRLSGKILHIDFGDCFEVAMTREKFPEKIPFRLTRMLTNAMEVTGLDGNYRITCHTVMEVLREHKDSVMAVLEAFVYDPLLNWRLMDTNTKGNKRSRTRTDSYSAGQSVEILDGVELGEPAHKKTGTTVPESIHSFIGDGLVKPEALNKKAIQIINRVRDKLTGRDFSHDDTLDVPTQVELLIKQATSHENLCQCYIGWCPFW
Protocol: The biochemical mTOR assay was carried out by the method described in the Millipore mTOR assay kit (catalogue number 14-770).

PI3Kbeta = PI3Kbeta (Homo sapiens, UniProt P42338); assay: Biochemical PI3Kbeta assay (neomycin SPA, lipid phosphorylation); settings: human recombinant GST-PI3K
PI3Kbeta, sequence (P42338 whole entry): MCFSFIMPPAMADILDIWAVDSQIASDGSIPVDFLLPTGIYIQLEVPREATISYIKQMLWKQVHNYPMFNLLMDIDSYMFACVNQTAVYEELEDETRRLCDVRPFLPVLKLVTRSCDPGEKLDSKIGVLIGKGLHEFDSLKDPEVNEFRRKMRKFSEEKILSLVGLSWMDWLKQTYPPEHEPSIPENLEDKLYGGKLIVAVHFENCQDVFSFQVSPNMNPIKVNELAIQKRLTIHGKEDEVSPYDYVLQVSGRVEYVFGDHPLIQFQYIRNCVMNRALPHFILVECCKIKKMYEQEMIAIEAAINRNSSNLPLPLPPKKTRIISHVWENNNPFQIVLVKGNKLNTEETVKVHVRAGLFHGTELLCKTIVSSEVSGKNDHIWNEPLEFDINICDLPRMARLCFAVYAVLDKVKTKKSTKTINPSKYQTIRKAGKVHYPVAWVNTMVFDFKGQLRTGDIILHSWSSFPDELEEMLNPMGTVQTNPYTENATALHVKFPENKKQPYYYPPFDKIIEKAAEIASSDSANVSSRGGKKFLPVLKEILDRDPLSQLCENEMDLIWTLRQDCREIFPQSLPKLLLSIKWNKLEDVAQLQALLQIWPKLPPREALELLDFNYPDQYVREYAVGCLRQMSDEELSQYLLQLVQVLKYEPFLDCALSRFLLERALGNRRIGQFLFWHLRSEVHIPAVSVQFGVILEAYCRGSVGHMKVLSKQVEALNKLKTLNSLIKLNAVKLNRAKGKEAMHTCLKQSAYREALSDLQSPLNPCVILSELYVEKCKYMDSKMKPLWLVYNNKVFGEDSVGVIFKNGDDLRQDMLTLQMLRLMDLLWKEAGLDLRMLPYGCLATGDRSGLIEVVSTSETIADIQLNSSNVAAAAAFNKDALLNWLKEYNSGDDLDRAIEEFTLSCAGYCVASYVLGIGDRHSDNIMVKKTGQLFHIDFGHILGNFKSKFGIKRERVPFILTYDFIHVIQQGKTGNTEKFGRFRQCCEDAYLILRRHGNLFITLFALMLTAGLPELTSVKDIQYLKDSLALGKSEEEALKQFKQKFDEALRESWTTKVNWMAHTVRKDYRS
PI3Kbeta, sequence (P27986 whole entry partner): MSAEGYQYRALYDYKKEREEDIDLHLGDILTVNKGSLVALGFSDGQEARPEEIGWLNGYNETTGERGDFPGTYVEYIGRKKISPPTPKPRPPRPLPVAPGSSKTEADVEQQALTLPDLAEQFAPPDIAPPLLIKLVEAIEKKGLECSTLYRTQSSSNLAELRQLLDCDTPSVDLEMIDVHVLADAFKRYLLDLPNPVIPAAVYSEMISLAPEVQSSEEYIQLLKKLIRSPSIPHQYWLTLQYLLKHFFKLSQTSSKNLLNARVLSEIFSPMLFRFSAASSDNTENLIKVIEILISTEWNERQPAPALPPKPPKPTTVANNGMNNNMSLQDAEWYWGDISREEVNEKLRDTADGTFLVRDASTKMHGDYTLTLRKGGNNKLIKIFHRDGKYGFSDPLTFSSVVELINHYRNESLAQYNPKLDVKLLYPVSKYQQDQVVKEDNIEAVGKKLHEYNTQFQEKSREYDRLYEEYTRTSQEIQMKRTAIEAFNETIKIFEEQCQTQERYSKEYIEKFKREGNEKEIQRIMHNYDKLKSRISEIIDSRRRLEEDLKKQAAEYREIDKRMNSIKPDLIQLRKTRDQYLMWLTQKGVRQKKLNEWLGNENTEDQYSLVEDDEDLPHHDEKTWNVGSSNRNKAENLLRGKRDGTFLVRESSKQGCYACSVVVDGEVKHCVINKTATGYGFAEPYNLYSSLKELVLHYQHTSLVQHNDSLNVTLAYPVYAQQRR
Summary of the method: as §1

DNA-PK protein complex = DNA-PK protein complex (Homo sapiens, UniProt P78527); assay: Biochemical DNA-PK assay (FlashPlate)
Summary of the method: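 Streptavidin-coated FlashPlate radiometric kinase assay, stopped with 200 mM EDTA, then wells washed with 0.9% NaCl and bound radioactivity counted. Blank (non-specific reaction) defined with a proprietary kinase inhibitor at 10 μM.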

[1] = tested on: PI3K-dependent phosphorylation of PKB at Serin 473 in PC3 cells; assay: Cellular PI3K assay (P-S473-PKB Luminex assay in PC3 cells); format: cell-based; settings: Homo sapiens, PC-3, 0.5 h; PC3 cells, 30 min, serum-free, P-S473-PKB; read-out: IC50 (cell)
Summary of the method: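 PC3 cells were exposed for 30 min under serum-free conditions to 7 concentrations of compound, then lysed. Lysates were captured overnight at 4°C on anti-total-PKB Luminex beads and detected with P-S473-PKB antibody plus PE-labelled secondary.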

[2] = biological target: recombinant PI3Kalpha (shortened form of the catalytic subunit) (Homo sapiens, UniProt P42336); assay: BIACORE PI3K binding assay (SPR); settings: 25° C.
recombinant PI3Kalpha (shortened form of the catalytic subunit), sequence (P42336 151-1068 limits assumed): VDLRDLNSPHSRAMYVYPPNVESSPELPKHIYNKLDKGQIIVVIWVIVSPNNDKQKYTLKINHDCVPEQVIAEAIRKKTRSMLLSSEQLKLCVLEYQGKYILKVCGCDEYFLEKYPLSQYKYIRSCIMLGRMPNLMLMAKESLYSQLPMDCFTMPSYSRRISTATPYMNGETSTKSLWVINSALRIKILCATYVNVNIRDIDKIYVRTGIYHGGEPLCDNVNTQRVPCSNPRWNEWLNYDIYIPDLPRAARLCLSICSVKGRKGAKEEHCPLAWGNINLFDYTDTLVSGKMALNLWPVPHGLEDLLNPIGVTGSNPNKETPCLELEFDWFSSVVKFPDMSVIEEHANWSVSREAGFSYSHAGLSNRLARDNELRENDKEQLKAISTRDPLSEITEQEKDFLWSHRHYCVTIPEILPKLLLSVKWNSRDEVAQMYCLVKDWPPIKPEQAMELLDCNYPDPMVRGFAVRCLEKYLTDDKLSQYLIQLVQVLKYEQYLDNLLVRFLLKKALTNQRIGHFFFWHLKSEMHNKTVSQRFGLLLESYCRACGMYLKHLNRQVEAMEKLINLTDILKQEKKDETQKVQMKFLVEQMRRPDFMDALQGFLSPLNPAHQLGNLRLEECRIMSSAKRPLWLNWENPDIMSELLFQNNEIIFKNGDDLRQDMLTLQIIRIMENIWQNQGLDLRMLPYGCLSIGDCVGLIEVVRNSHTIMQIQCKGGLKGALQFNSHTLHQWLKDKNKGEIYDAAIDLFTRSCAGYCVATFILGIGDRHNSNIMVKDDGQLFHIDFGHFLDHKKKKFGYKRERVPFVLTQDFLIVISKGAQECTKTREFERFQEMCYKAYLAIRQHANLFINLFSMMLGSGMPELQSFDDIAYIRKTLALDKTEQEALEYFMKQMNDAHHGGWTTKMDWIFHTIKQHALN
Summary of the method: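 Contact time was 180 s and dissociation 240 s, in HEPES pH 7.40 buffer with 2% DMSO. Solvent-corrected, double-referenced data were fitted to a 1:1 model with mass transport.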

PI3Kalpha, sequence (P42336 whole entry): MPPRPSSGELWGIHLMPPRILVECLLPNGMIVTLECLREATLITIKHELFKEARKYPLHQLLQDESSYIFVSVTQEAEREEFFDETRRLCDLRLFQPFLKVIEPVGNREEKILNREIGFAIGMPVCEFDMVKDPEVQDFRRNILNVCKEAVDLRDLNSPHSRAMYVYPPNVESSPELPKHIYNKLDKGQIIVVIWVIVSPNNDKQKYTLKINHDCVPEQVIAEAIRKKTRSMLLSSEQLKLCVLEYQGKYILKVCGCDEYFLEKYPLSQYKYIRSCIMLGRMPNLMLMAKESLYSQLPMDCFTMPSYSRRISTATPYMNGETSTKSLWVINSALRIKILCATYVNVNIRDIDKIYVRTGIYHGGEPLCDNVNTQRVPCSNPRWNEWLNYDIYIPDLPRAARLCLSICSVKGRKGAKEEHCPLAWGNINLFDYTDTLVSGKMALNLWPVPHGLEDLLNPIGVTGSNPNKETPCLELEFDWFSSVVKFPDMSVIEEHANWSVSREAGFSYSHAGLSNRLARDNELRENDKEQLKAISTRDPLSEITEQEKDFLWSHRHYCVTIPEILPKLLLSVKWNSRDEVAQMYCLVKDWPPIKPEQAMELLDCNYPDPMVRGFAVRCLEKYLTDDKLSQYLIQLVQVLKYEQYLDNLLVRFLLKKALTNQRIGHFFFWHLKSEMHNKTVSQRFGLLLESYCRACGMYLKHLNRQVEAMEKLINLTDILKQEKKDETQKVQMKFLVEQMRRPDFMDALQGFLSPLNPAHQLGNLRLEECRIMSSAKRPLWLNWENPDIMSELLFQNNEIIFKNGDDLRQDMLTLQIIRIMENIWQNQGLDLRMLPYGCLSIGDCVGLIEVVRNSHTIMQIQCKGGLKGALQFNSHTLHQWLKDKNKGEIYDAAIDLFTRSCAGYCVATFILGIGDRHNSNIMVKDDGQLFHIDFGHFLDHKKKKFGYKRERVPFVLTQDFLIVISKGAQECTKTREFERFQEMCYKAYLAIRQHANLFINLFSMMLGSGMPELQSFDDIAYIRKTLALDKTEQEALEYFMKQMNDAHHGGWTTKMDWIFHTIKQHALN
PI3Kalpha, sequence (P27986 whole entry partner): as the sequence (P27986 whole entry partner) above

Compound	IC50 (PI3Kalpha)	IC50 (mTOR)	IC50 (PI3Kbeta)	IC50 (DNA-PK protein complex)	IC50 [1]	Kd [2]
Cc1cccc(-n2c(-c3cc(-c4cnc5[nH]ccc5c4)ccn3)cn(C)c2=O)c1 [Example A79, 1-Methyl-4-[4-(1H-pyrrolo[2,3-b]pyridin-5-yl)pyridin-2-yl]-3-m-tolyl-1,3-dihydro-imidazol-2-one]	0.1 to 10 µM	0.1 to 10 µM	0.1 to 10 µM	0.0001 to 0.1 µM	0.1 to 10 µM	–
Cn1cc(-c2cc(-c3ccnc4[nH]ccc34)ccn2)n(-c2ccc(C(C)(C)C#N)cc2)c1=O [Example A23, 2-Methyl-2-(4-{3-methyl-2-oxo-5-[4-(1H-pyrrolo[2,3-b]pyridin-4-yl)pyridin-2-yl]-2,3-dihydroimidazol-1-yl}phenyl)propionitrile]	0.1 to 10 µM	0.1 to 10 µM	> 10 µM	0.0001 to 0.1 µM	0.1 to 10 µM	0.1 to 10 µM
CC(C)c1cccc(-n2c(-c3cc(-c4cnc5[nH]ccc5c4)ccn3)cn(C)c2=O)c1 [Example A80, 3-(3-Isopropylphenyl)-1-methyl-4-[4-(1H-pyrrolo[2,3-b]pyridin-5-yl)pyridin-2-yl]-1,3-dihydroimidazol-2-one]	0.1 to 10 µM	> 10 µM	0.1 to 10 µM	0.0001 to 0.1 µM	0.1 to 10 µM	–
Cn1cc(-c2cc(-c3ccc(N)cc3)ccn2)n(-c2ccc(N3CCNCC3)c(C(F)(F)F)c2)c1=O [Example A60, 4-[4-(4-Aminophenyl)pyridin-2-yl]-1-methyl-3-(4-piperazin-1-yl-3-trifluoromethyl-phenyl)-1,3-dihydroimidazol-2-one]	0.1 to 10 µM	> 10 µM	> 10 µM	0.0001 to 0.1 µM	0.1 to 10 µM	0.1 to 10 µM
CC(=O)N1CCN(c2ccc(-n3c(-c4cc(-c5cnc6[nH]ccc6c5)ccn4)cn(C)c3=O)cc2C(F)(F)F)CC1 [Example A72, 3-[4-(4-Acetylpiperazin-1-yl)-3-trifluoromethylphenyl]-1-methyl-4-[4-(1H-pyrrolo[2,3-b]pyridin-5-yl)pyridin-2-yl]-1,3-dihydroimidazol-2-one]	0.1 to 10 µM	0.1 to 10 µM	0.1 to 10 µM	0.0001 to 0.1 µM	0.0001 to 0.1 µM	0.0001 to 0.1 µM
Cn1cc(-c2cc(-c3cnc4[nH]ccc4c3)ccn2)n(-c2ccc(F)c(C(F)(F)F)c2)c1=O [Example A51, 3-(4-Fluoro-3-trifluoromethylphenyl)-1-methyl-4-[4-(1H-pyrrolo[2,3-b]pyridin-5-yl)pyridin-2-yl]-1,3-dihydroimidazol-2-one]	0.1 to 10 µM	0.1 to 10 µM	> 10 µM	0.0001 to 0.1 µM	0.1 to 10 µM	–
CN1CCN(c2ccc(-n3c(-c4cc(-c5cnc6[nH]c(C(C)(C)C)cc6c5)ccn4)cn(C)c3=O)cc2C(F)(F)F)CC1 [Example A86, 4-[4-(2-tert-Butyl-1H-pyrrolo[2,3-b]pyridin-5-yl)pyridin-2-yl]-1-methyl-3-[4-(4-methylpiperazin-1-yl)-3-trifluoromethylphenyl]-1,3-dihydroimidazol-2-one]	0.1 to 10 µM	0.1 to 10 µM	0.1 to 10 µM	0.0001 to 0.1 µM	0.1 to 10 µM	0.1 to 10 µM
CCN1CCN(c2ccc(-n3c(-c4cc(-c5cnc6[nH]ccc6c5)ccn4)cn(C)c3=O)cc2C(F)(F)F)CC1 [Example A77, 3-[4-(4-Ethylpiperazin-1-yl)-3-trifluoromethylphenyl]-1-methyl-4-[4-(1H-pyrrolo[2,3-b]pyridin-5-yl)pyridin-2-yl]-1,3-dihydroimidazol-2-one]	0.1 to 10 µM	> 10 µM	0.1 to 10 µM	0.0001 to 0.1 µM	0.0001 to 0.1 µM	–
Cn1cc(-c2cc(-c3ccc(NS(C)(=O)=O)nc3)ccn2)n(-c2ccc(N3CCNCC3)c(C(F)(F)F)c2)c1=O [Example A61, N-{2′-[1-Methyl-2-oxo-3-(4-piperazin-1-yl-3-trifluoromethylphenyl)-2,3-dihydro-1H-imidazol-4-yl]-[3,4′]bipyridinyl-6-yl}methanesulfonamide]	0.1 to 10 µM	0.1 to 10 µM	> 10 µM	0.0001 to 0.1 µM	> 10 µM	–
Cn1cc(-c2cc(-c3cnc4[nH]ncc4c3)ccn2)n(-c2cccc(C#N)c2)c1=O [Example A63, 3-{3-Methyl-2-oxo-5-[4-(1H-pyrazolo[3,4-b]pyridin-5-yl)pyridin-2-yl]-2,3-dihydro-imidazol-1-yl}benzonitrile]	0.0001 to 0.1 µM	0.0001 to 0.1 µM	0.1 to 10 µM	0.0001 to 0.1 µM	0.1 to 10 µM	0.0001 to 0.1 µM
Cn1cc(-c2cc(-c3cnc4[nH]ncc4c3)ccn2)n(-c2ccc(N3CCNCC3)c(C(F)(F)F)c2)c1=O [Example A46, 1-Methyl-3-(4-piperazin-1-yl-3-trifluoromethylphenyl)-4-[4-(1H-pyrazolo[3,4-b]-pyridin-5-yl)pyridin-2-yl]-1,3-dihydroimidazol-2-one]	0.0001 to 0.1 µM	0.1 to 10 µM	0.1 to 10 µM	0.0001 to 0.1 µM	0.1 to 10 µM	0.0001 to 0.1 µM
CCn1cc(-c2cc(-c3cnc4[nH]ccc4c3)ccn2)n(-c2ccc(C(C)(C)C#N)cc2)c1=O [Example A24, 2-(4-{3-Ethyl-2-oxo-5-[4-(1H-pyrrolo[2,3-b]pyridin-5-yl)pyridin-2-yl]-2,3-dihydro-imidazol-1-yl}phenyl)-2-methylpropionitrile]	0.1 to 10 µM	0.0001 to 0.1 µM	0.1 to 10 µM	0.0001 to 0.1 µM	0.1 to 10 µM	0.0001 to 0.1 µM
Cn1cc(-c2cc(-c3ccc(N)c(C(F)(F)F)c3)ccn2)n(-c2ccc(C(C)(C)C#N)cc2)c1=O [Example A93, 2-(4-{5-[4-(4-Amino-3-trifluoromethylphenyl)pyridin-2-yl]-3-methyl-2-oxo-2,3-dihydroimidazol-1-yl}phenyl)-2-methylpropionitrile]	0.1 to 10 µM	0.1 to 10 µM	0.1 to 10 µM	0.0001 to 0.1 µM	0.1 to 10 µM	0.0001 to 0.1 µM
Cn1cc(-c2cc(-c3cnc4[nH]ccc4c3)ccn2)n(-c2ccccc2OC(F)(F)F)c1=O [Example A76, 1-Methyl-4-[4-(1H-pyrrolo[2,3-b]pyridin-5-yl)pyridin-2-yl]-3-(2-trifluoromethoxy-phenyl)-1,3-dihydroimidazol-2-one]	> 10 µM	0.0001 to 0.1 µM	> 10 µM	0.0001 to 0.1 µM	> 10 µM	–
N#Cc1cccc(-n2c(-c3cc(-c4cnc5[nH]ccc5c4)ccn3)cn(C(F)F)c2=O)c1 [Example A75, 3-{3-Difluoromethyl-2-oxo-5-[4-(1H-pyrrolo[2,3-b]pyridin-5-yl)pyridin-2-yl]-2,3-dihydroimidazol-1-yl}benzonitrile]	0.1 to 10 µM	0.1 to 10 µM	> 10 µM	0.0001 to 0.1 µM	0.1 to 10 µM	–
Cn1cc(-c2cc(-c3cnc4[nH]ccc4c3)ccn2)n(-c2ccc(N3CCN(S(C)(=O)=O)CC3)c(C(F)(F)F)c2)c1=O [Example A74, 3-[4-(4-Methanesulfonylpiperazin-1-yl)-3-trifluoromethylphenyl]-1-methyl-4-[4-(1H-pyrrolo[2,3-b]pyridin-5-yl)pyridin-2-yl]-1,3-dihydroimidazol-2-one]	0.1 to 10 µM	0.0001 to 0.1 µM	0.1 to 10 µM	0.0001 to 0.1 µM	0.0001 to 0.1 µM	–
